Experiments:
c-Met = c-Met (Homo sapiens, UniProt P08581); experiment: Ki determination for the inhibition of c-Met, coupled enzyme system; type: biochemical; conditions: 200 μM ATP, 10 μM polyGluTyr, 80 nM c-Met, 30° C.
How it was run: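 Coupled pyruvate kinase/lactate dehydrogenase NADH assay with 80 nM c-Met, 200 μM ATP, 10 μM polyGluTyr in pH 7.5 HEPES, 1.5% DMSO at 30° C. Compound (0.006–12.5 μM final, 12-point) preincubated 10 min; ATP started reaction, rates read over 10 min; Ki derived from rate versus inhibitor concentration.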

JAK3 = target: T1, JAK3 (Homo sapiens, UniProt P52333); experiment: JAK3 inhibition assay (ELISA, Poly (Glu, Ala, Tyr) coated plates); type: biochemical; conditions: 2 mM ATP, 60 minutes at 30° C.
T1 sequence (P52333 1-1124): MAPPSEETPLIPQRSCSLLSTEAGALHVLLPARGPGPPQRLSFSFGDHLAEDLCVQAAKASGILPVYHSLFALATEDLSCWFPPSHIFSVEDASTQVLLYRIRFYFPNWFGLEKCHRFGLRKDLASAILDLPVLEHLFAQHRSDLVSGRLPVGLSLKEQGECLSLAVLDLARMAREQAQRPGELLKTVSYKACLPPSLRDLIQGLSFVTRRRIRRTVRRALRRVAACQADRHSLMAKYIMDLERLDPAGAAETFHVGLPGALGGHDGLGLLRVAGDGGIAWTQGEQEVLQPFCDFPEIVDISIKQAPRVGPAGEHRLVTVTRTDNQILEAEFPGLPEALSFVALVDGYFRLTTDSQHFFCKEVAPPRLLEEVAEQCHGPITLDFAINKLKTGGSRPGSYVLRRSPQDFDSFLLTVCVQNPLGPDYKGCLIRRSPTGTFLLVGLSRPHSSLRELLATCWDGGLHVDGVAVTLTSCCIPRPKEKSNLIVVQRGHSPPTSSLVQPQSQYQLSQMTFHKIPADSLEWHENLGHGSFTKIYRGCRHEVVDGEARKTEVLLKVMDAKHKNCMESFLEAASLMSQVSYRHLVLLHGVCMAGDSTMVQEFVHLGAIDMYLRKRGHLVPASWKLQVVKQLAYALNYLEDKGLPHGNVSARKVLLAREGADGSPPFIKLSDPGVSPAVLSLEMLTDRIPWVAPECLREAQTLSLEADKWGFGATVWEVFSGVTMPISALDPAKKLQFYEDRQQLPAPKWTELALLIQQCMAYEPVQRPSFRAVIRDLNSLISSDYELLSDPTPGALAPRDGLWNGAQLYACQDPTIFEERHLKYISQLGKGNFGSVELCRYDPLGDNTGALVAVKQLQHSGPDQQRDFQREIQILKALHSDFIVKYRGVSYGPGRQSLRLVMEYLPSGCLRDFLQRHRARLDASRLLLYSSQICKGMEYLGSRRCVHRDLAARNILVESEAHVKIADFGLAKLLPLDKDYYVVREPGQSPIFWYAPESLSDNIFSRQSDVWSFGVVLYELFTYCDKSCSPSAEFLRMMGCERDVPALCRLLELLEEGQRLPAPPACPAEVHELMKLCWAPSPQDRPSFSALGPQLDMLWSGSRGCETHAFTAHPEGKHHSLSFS
How it was run: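 ELISA on Poly(Glu,Ala,Tyr) 6:3:1-coated plates with 2 mM ATP and 5 mM MgCl2. JAK enzyme started the reaction, run 60 min at 30° C. Phosphotyrosine was detected with HRP-conjugated 4G10 antibody and TMB, read at 450 nm, and IC50 was derived from optical densities.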

Sequence of c-Met (P08581 25-1390): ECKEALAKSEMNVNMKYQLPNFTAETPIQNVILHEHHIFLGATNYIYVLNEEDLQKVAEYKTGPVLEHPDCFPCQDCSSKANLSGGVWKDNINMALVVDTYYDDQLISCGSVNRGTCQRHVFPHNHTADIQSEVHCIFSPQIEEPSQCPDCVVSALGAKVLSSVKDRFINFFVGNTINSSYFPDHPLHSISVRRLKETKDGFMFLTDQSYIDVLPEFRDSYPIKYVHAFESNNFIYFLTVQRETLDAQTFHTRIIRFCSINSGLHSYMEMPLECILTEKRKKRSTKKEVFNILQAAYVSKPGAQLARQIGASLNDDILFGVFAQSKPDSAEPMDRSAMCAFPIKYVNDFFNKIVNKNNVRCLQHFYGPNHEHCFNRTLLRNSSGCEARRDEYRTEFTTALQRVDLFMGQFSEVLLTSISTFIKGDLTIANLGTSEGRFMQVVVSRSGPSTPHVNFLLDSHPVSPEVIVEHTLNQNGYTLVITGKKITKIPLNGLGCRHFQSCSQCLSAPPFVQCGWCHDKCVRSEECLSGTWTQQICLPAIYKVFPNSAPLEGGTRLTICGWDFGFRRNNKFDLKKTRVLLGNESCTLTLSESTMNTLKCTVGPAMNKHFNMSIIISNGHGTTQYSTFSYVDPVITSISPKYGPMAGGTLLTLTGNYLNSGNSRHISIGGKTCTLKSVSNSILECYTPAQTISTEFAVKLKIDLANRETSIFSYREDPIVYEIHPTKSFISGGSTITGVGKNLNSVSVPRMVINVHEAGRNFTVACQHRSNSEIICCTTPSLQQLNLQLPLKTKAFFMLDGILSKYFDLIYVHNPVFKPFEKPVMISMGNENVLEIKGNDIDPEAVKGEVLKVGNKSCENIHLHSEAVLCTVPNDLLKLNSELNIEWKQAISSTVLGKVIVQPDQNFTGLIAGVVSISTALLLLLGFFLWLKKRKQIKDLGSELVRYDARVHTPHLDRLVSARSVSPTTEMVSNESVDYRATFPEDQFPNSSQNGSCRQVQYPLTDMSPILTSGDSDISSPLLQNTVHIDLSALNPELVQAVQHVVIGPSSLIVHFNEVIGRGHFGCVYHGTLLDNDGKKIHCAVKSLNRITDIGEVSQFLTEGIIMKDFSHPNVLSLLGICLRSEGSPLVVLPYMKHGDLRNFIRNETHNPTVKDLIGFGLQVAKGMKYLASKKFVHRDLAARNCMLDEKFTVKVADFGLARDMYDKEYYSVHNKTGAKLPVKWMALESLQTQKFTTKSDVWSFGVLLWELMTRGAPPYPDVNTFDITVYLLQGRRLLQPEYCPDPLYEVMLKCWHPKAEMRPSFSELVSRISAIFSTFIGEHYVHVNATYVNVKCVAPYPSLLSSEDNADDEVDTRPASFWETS

| SMILES | Ki (c-Met) [µM] | Ki (JAK3) [µM] |
| --- | --- | --- |
| OCc1cnc2[nH]cc(-c3oncc3-c3cccc(F)c3F)c2c1 [Compound 55, {3-[4-(2,3-Difluoro-phenyl)-isoxazol-5-yl]-1H-pyrrolo[2,3-b]pyridin-5-yl}-methanol] | 0.2 to 1 | 1 to 12.5 |
| Fc1cnc2[nH]cc(-c3oncc3-c3cccc(F)c3F)c2c1 [Compound 45, 3-[4-(2,3-Difluoro-phenyl)-isoxazol-5-yl]-5-fluoro-1H-pyrrolo[2,3-b]pyridine] | 0.2 to 1 | 1 to 12.5 |
| Fc1cccc(-c2cnoc2-c2c[nH]c3ccc(-c4ccncc4)cc23)c1F [Compound 34, 3-[4-(2,3-Difluoro-phenyl)-isoxazol-5-yl]-5-pyridin-4-yl-1H-indole] |  | 1 to 12.5 |
| COc1cnc2[nH]cc(-c3nncn3-c3cccc(F)c3F)c2c1 [Compound 108, 3-[4-(2,3-Difluoro-phenyl)-4H-[1,2,4]triazol-3-yl]-5-methoxy-1H-pyrrolo[2,3-b]pyridine] | 0.2 to 1 | 1 to 12.5 |
| Fc1cccc(-c2cnoc2-c2c[nH]c3nc(Cl)c(-c4ccncc4)cc23)c1F [Compound 103, 6-Chloro-3-[4-(2,3-difluoro-phenyl)-isoxazol-5-yl]-5-pyridin-4-yl-1H-pyrrolo[2,3-b]pyridine] | 0.2 to 1 | 1 to 12.5 |
| Fc1cccc(-c2cnoc2-c2c[nH]c3ncc(CCn4cncn4)cc23)c1F [Compound 132, 3-[4-(2,3-Difluoro-phenyl)-isoxazol-5-yl]-5-(2-[1,2,4]triazol-1-yl-ethyl)-1H-pyrrolo[2,3-b]pyridine] | 0.2 to 1 | 1 to 12.5 |
| O=C(c1cnc2[nH]cc(-c3oncc3-c3cccc(F)c3F)c2c1)N1CCCC1 [Compound 104, {3-[4-(2,3-Difluoro-phenyl)-isoxazol-5-yl]-1H-pyrrolo[2,3-b]pyridin-5-yl}-pyrrolidin-1-yl-methanone] | 0.2 to 1 | 1 to 12.5 |
| Fc1cccc(-n2cnnc2-c2c[nH]c3ncc(-c4ccc(N5CCNCC5)nc4)cc23)c1F [Compound 111, 3-[4-(2,3-Difluoro-phenyl)-4H-[1,2,4]triazol-3-yl]-5-(6-piperazin-1-yl-pyridin-3-yl)-1H-pyrrolo[2,3-b]pyridine] | 0.2 to 1 | 1 to 12.5 |
| Fc1cccc(-c2cnoc2-c2n[nH]c3ncccc23)c1F [Compound 31, 3-(4-(2,3-difluorophenyl)isoxazol-5-yl)-1H-pyrazolo[3,4-b]pyridine] | 0.2 to 1 | 1 to 12.5 |

The remaining lines, values ahead:

| Ki (c-Met) [µM] | Ki (JAK3) [µM] | SMILES |
| --- | --- | --- |
| 0.2 to 1 | < 0.2 | Fc1ccc(F)c(-c2cnoc2-c2c[nH]c3ncccc23)c1F [Compound 41, 3-[4-(2,3,6-Trifluoro-phenyl)-isoxazol-5-yl]-1H-pyrrolo [2,3-b]pyridine] |
| 0.2 to 1 | 0.2 to 1 | c1ccc(-c2cnoc2-c2c[nH]c3ncccc23)cc1 [Compound 35, 3-[4-Phenyl-isoxazol-5-yl]-1H-pyrrolo[2,3-b]pyridine] |
| < 0.2 | < 0.2 | C[N+]1(C)CCN(c2ccc(-c3cnc4[nH]cc(-c5oncc5-c5cccc(F)c5F)c4c3)cc2)CC1 [Compound 155] |
| < 0.2 | < 0.2 | OB(O)c1cnc2[nH]cc(-c3oncc3-c3cccc(F)c3F)c2c1 [Compound 154] |
| 0.2 to 1 | 0.2 to 1 | Fc1cc(F)c(F)c(-c2cnoc2-c2c[nH]c3ncccc23)c1 [Compound 39, 3-[4-(2,3,5-Trifluoro-phenyl)-isoxazol-5-yl]-1H-pyrrolo [2,3-b]pyridine] |
| < 0.2 | 0.2 to 1 | Cc1cnc2[nH]cc(-c3oncc3-c3cccc(F)c3F)c2c1 [Compound 46, 3-[4-(2,3-Difluoro-phenyl)-isoxazol-5-yl]-5-methyl-1H-pyrrolo[2,3-b]pyridine] |
| < 0.2 | 0.2 to 1 | CN1CCN(C(=O)[C@H]2C[C@@H]2c2cnc3[nH]cc(-c4oncc4-c4cccc(F)c4F)c3c2)CC1 (relative stereo) [Compound 142, trans-(2-{3-[4-(2,3-Difluoro-phenyl)-isoxazol-5-yl]-1H-pyrrolo[2,3-b]pyridin-5-yl}-cyclopropyl)-(4-methyl-piperazin-1-yl)-methanone] |
| < 0.2 | < 0.2 | NC(=O)c1ccc(-c2cnc3[nH]cc(-c4oncc4-c4cccc(F)c4F)c3c2)cc1 [Compound 153] |
| < 0.2 | 0.2 to 1 | CN(C)C1CCC(c2cnc3[nH]cc(-c4oncc4-c4cccc(F)c4F)c3c2)CC1 (stereo not shown) [Compound 141, (4-{3-[4-(2,3-Difluoro-phenyl)-isoxazol-5-yl]-1H-pyrrolo[2,3-b]pyridin-5-yl}-cyclohexyl)-dimethylamine] |
| < 0.2 | 0.2 to 1 | Fc1cccc(-c2cnoc2-c2c[nH]c3ncc(Cl)cc23)c1F [Compound 44, 3-[4-(2,3-Difluoro-phenyl)-isoxazol-5-yl]-5-chloro-1H-pyrrolo[2,3-b]pyridine] |
